System: Aspergillus niger pectin lyase B (PLB), purified from pelB transformant B13, SEQ ID NO: 6
Settings: EDTA 3 mM final concentration in the reaction mixture; enzyme reactivated by excess of Ca2+ ions
Procedure: Both highly esterified pectin (d.e. 94%) as well as pectins with lower degree of esterification like Brown Ribbon apple pectin (d.e. 72.8%; Obipektin AG Bischoffzell) can be used as substrate.
These values are determined according to the procedure of van Houdenhoven (ref. 18) using a Mc Ilvaine buffer of pH 8.0 (μ=0.5).

## O=C([O-])CN(CCN(CC(=O)O)CC(=O)O)CC(=O)[O-].[Na+].[Na+] [EDTA, ethylenediaminetetraacetic acid disodium salt]
  inhibition of the pectin lyase reaction by EDTA: inhibited

— patent US5447862A, “Pectin lyase genes of aspergillus niger” (Ciba-Geigy Corporation, priority 1987, dated 1995)
